Test results reported in US10174007B2, “Substituted 3-azabicyclo[3.1.0]hexanes as ketohexokinase inhibitors” (Pfizer Inc., priority 2015, dated 2019).

Target: KHK-C (Homo sapiens (Human), UniProt P50053)
Test: Assay A: coupled-enzyme KHK absorbance assay, 10 nM KHK-C
Conditions: read-out: IC50 (nM) Assay A (Table 4); 10 nM KHK-C, 0.8 mM fructose, 0.2 mM ATP; avg of (#) runs
Source text: A screening assay was developed for KHK involving a coupled enzyme system which used the product of the KHK reaction to drive an absorbance signal in kinetic mode. KHK takes fructose and ATP and converts it to F1P and ADP. ADP then serves as substrate to pyruvate kinase which converts PEP to pyruvate which is then reduced to lactate by lactate dehydrogenase with the concomitant oxidation of NADH to NAD+. The resulting depletion of NADH was monitored by measuring absorbance at 340 nm.
Recombinant human KHK-C and KHK-A were expressed in E. coli as a His-tagged fusion protein and purified using Ni-NTA chromatography.
Compounds were prepared in DMSO as 4 mM stocks, diluted using an 11-point half-log scheme on a Biomek FX (Beckman Coulter), and incubated at rt for 30 minutes with the reaction mixture containing 50 mM HEPES, pH 7.4, 140 mM KCl, 3.5 mM MgCl2, 0.8 mM fructose, 2 mM TCEP, 0.8 mM PEP, 0.7 mM NADH, 0.01% Triton X-100, 30 U/mL pyruvate kinase-lactate dehydrogenase, and 10 nM purified KHK-C. The compound concentration in each well ranged from 1 nM to 100 μM. The reaction was initiated with the addition of 0.2 mM ATP. The absorbance was measured for 30 minutes on a SpectraMax reader (Molecular Devices) after ATP was added. The concentrations provided are based on the final mixture volume of 40 μL (referred to as the final concentration).
Controls: N8-(cyclopropylmethyl)-N4-(2-(methylthio)phenyl)-2-(piperazin-1-yl)pyrimido[5,4-d]pyrimidine-4,8-diamine at 2 μM final concentration was used as high percent effect (HPE) control, and 2.5% DMSO which was present in all reaction wells was used as zero percent effect (ZPE) control. Reaction rates were obtained for 300-1800 seconds time window in units of 1000*AU/min (absorbance unit per minute), and average values for ZPE and HPE controls from 16 wells each were calculated, AveZPE and AveHPE, respectively.
Percent inhibition (% inhibition) was calculated for each well using this equation:
For each compound tested, the IC50 provided is the average based on at least two separate assays conducted on separate days.

KHK-C, sequence (P50053 whole entry): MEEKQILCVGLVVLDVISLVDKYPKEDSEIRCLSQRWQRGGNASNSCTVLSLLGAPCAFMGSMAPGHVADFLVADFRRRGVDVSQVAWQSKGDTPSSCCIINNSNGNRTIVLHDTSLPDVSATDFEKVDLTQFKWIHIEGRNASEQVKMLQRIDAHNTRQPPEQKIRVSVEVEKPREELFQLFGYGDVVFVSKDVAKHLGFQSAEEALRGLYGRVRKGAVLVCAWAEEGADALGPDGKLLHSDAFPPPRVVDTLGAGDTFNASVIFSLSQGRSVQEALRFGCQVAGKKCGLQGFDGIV

Row | IC50 [nM] | Structure (SMILES)
1 | 114 | Cc1c(N2C[C@@H]3[C@@H](CC(=O)O)[C@@H]3C2)nc(N2C[C@@H](O)[C@@H]2C)nc1C(C)(F)F [Example 33, [(1R,5S,6R)-3-{6-(1,1-difluoroethyl)-2-[(2S,3R)-3-hydroxy-2-methylazetidin-1-yl]-5-methylpyrimidin-4-yl}-3-azabicyclo[3.1.0]hex-6-yl]acetic acid]
2 | 331 | C[C@H]1[C@H](O)CN1c1cc(N2C[C@@H]3[C@@H](CC(=O)O)[C@@H]3C2)cc(C(C)(F)F)n1 [Example 34, [(1R,5S,6R)-3-{2-(1,1-difluoroethyl)-6-[(2S,3R)-3-hydroxy-2-methylazetidin-1-yl]pyridin-4-yl}-3-azabicyclo[3.1.0]hex-6-yl]acetic acid]
3 | 188 | C[C@H]1C[C@H](O)CN1c1nc(N2C[C@@H]3[C@@H](CC(=O)O)[C@@H]3C2)c(Cl)c(C(F)(F)F)n1 [Example 35, [(1R,5S,6R)-3-{5-chloro-2-[(2S,4S)-4-hydroxy-2-methylpyrrolidin-1-yl]-6-(trifluoromethyl)pyrimidin-4-yl}-3-azabicyclo[3.1.0]hex-6-yl]acetic acid]
4 | 103 | C[C@@H]1N(c2nc(C(F)F)c(Cl)c(N3C[C@@H]4[C@@H](CC(=O)O)[C@@H]4C3)n2)C[C@@]1(C)O [Example 36, [(1R,5S,6R)-3-{5-chloro-6-(difluoromethyl)-2-[(2S,3R)-3-hydroxy-2,3-dimethylazetidin-1-yl]pyrimidin-4-yl}-3-azabicyclo[3.1.0]hex-6-yl]acetic acid]
5 | 58.3 | N#Cc1c(C(F)F)cc(N2C[C@@H]3[C@@H](CC(=O)O)[C@@H]3C2)nc1N1CCCC1 [Example 37, {(1R,5S,6s)-3-[5-cyano-4-(difluoromethyl)-6-(pyrrolidin-1-yl)pyridin-2-yl]-3-azabicyclo[3.1.0]hex-6-yl}acetic acid]
6 | 25.3 | CC1CCCN1c1nc(N2C[C@@H]3[C@@H](CC(=O)O)[C@@H]3C2)cc(C(F)F)c1C#N (stereo partly drawn) [Example 38, {(1R,5S,6s)-3-[5-cyano-4-(difluoromethyl)-6-(2-methylpyrrolidin-1-yl)pyridin-2-yl]-3-azabicyclo[3.1.0]hex-6-yl}acetic acid]
7 | 24.8 | CC1CCCCN1c1nc(N2C[C@@H]3[C@@H](CC(=O)O)[C@@H]3C2)cc(C(F)(F)F)n1 (stereo partly drawn) [Example 39, {(1R,5S,6s)-3-[2-(2-methylpiperidin-1-yl)-6-(trifluoromethyl)pyrimidin-4-yl]-3-azabicyclo[3.1.0]hex-6-yl}acetic acid]
8 | 111 | CCc1c(C(F)F)nc(N2C[C@@H](O)[C@@H]2C)nc1N1C[C@@H]2[C@@H](CC(=O)O)[C@@H]2C1 [Example 41, [(1R,5S,6R)-3-{6-(difluoromethyl)-5-ethyl-2-[(2S,3R)-3-hydroxy-2-methylazetidin-1-yl]pyrimidin-4-yl}-3-azabicyclo[3.1.0]hex-6-yl]acetic acid]
9 | 51.4 | Cc1c(N2C[C@@H]3[C@@H](CC(=O)O)[C@@H]3C2)nc(N2CC[C@@H]2C)nc1C(C)(F)F [Example 44, [(1R,5S,6R)-3-{6-(1,1-difluoroethyl)-5-methyl-2-[(2S)-2-methylazetidin-1-yl]pyrimidin-4-yl}-3-azabicyclo[3.1.0]hex-6-yl]acetic acid]
10 | 238 | C[C@H]1[C@H](O)CN1c1nc(C(F)F)c(C2CC2)c(N2C[C@@H]3[C@@H](CC(=O)O)[C@@H]3C2)n1 [Example 45, [(1R,5S,6R)-3-{5-cyclopropyl-6-(difluoromethyl)-2-[(2S,3R)-3-hydroxy-2-methylazetidin-1-yl]pyrimidin-4-yl}-3-azabicyclo[3.1.0]hex-6-yl]acetic acid]
11 | 21.5 | N#Cc1c(C(F)(F)F)cc(N2C[C@@H]3[C@@H](CC(=O)O)[C@@H]3C2)nc1N1CCC1 [Example 46, {(1R,5S,6s)-3-[6-(azetidin-1-yl)-5-cyano-4-(trifluoromethyl)pyridin-2-yl]-3-azabicyclo[3.1.0]hex-6-yl}acetic acid]
